Assay results as given in US6723702B2, “Use of relaxin treat diseases related to vasoconstriction” (RAS Medical, Inc., priority 2000, dated 2004).

How the values were obtained:
[1] = system: wound chambers at shoulder and hip of Sprague Dawley rats; assay: Hunt-Schilling wound chamber assay; assay type: in vivo, rat
Procedure: The effect of rhRLX on normal and ischemic wound healing in two rat models of dermal wound healing was evaluated. RhRLX in vehicle, or vehicle alone, was delivered by subcutaneous infusion to Sprague-Dawley rats using an implanted ALZET7 osmotic pump (Alza Corp., Mountain View, Calif.).
In the first model, Hunt-Schilling wound chambers were implanted subcutaneously at either the shoulder or the hip region. The fluid and cells contained within each wound chamber were collected on day 18 for analysis of VEGF protein and mRNA. VEGF protein was detected and measured using ELISA. VEGF-encoding mRNA was detected using Northern blotting and RT-PCR. The granulation tissue within the wound chambers was collected for histological and immunohistochemical evaluation.
Stainless steel mesh cylinders (0.9 cm×3.4 cm) fitted with silicone rubber plugs at both ends were autoclaved prior to implantation. Chambers were implanted into two separate subcutaneous pockets (“Site 1” on the shoulder and “Site 2” on the hip) on the backs of Sprague Dawley rats. At the same time, osmotic pumps were implanted in a subcutaneous pocket at site distal to that of the chambers. At 18 days, chambers were carefully dissected free from the interstitium, and fluid aspirated using an 18-gauge needle through the silicone plugs at the end of the cylinder, and immediately placed on ice. Cells suspended within the fluid were pelleted by centrifugation, and cells and fluid were separated. Total RNA was harvested using RNAzol (Tel-Test, Inc., Friendswood, Tex.), according to vendor instructions. Fluid was immediately frozen, and assayed at a later date for cyokine content.
Primers were purchased from BioSource International (Camarillo, Calif.) and visualized using agarose gel electrophoresis.
Sense and anti-sense primers for use with the real time RT-PCR, ABI Prism 7700 Sequence Detection System were designed using the PrimerExpress version 1.0 software (PE Applied Biosystems, Inc.). Rat and human specific primer/probe sets included those for GAPDH, bFGF, the VEGF 164 aa or 120 aa rat isoforms, and their respective human homologues (VEGF 165 and VEGF 121). ABI PRISM specific primer/probes were purchased from BioSource International Inc. or PE Applied Biosystems.
RT-PCR was performed on 150 ng for the analysis of VEGF and bFGF mRNA expression. Ten nanograms of total RNA was used for GAPDH niRNA expression. PCR products using the ABI Prism 7700 Sequence Detection system (all reactions in a total volume of […]) were generated using primer/probe annealing temperatures of 58° C. and 35 cycles of PCR. Data were analyzed using Sequence Detector v1.6.3 software (Applied Biosystems/PE).
Relaxin was administered systemically to rats using osmotic pumps. In order to assess relaxin's ability to modulate expression of angiogenic cytokines at wound sites, Hunt-Schilling wound chambers were used for fluid and inflammatory cell collection. Wound chambers were implanted subcutaneously at two sites, the shoulder and the hip, distal to the site of pump implantation. Fluid and cells were collected at a point (18 days) during the healing time course when endogenous angiogenic activity and the cellular source, macrophages, were known to be present. Total RNA was harvested from wound cells and analyzed by RT-PCR for VEGF transcripts. When analyzed on an agarose gel, there were two distinct bands comprising the amplified products, corresponding to the 121aa and 164aa, isoforms of VEGF.
To assess the effect of rhRlx treatment on granulation tissue formation in normal and ischemic wounds, Hunt-Schilling wound chambers were implanted subcutaneously in either the shoulder or the more hypoxic hip region of female Sprague Dawley rats (Charles River Laboratories, Mass.). The wound chambers, fine stainless steel mesh cylinders sealed with medical grade silicone, provide a defined dead space for granulation tissue formation. […]

small renal arteries = assay: Myogenic reactivity of isolated small renal arteries, pressurized arteriograph; assay type: in vivo, rat; details: female rats administered rhRLX for 5 days (FIG. 14)
Text: Myogenic reactivity is a dynamic and complex integrative vascular behavior which can be assessed in small renal arteries utilizing the pressurized arteriograph. Equivalent tone was first established in all vessels by constricting them to 75% of their baseline diameter at 60 mm Hg using the adrenergic agonist, phenylephrine. Next the arteries which began at an initial pressure of 20 mm Hg were subjected to a rapid increase in transmural pressure of 20 mm Hg increments in the absence of flow. […] This blunted myogenic reactivity following rhRLX treatment of nonpregnant rats mimics pregnancy (Gandley RE, Conrad KP, McLaughlin MK. Am J Physiol Integrative Comp Physiol 280:R1-R7, 2001). Morever, as during pregnancy, this blunted myogenic reactivity can be reversed by adding inhibitors of nitric oxide to the vessel bath.

[2] = system: bFGF protein expression in human cardiac cells; assay: Immunocytochemistry of human cardiac cell cultures; assay type: cell-based; details: 10 and 100 ng/ml for 24 hours
Procedure: Human cardiac cell cultures untreated or treated for 24 hr with 1, 10, and 100 ng/ml of relaxin were analyzed for VEGF and bFGF protein expression by immunocytochemistry. Human cardiac cells were seeded in two chamber slides at 150,000 cells per chamber 24 hours prior to treatment with relaxin. Cells were incubated without or with 10 or 100 ng/ml relaxin for 24 hours. Cells were washed with PBS and fixed with sequential treatment of 4% paraformaldehyde for 10 minutes, ice-cold acetone for 1 minute and ice-cold methanol for 1 minute before air-drying. Slides were then processed as outlined for rat heart sections with the additional use of monoclonal antibodies against vimentin or desmin (Santa Cruz Biotechnology). Cells being analyzed for bFGF expression were stained using the protocol outlined by Vector Laboratories “Vectastain Elite ABC” kit (Vector Labs.), the only deviation from the standard protocol being a 1 hour instead of a 30 minutes primary antibody incubation step. Untreated cells stained diffusely and uniformly for bFGF. Nearly 100% of all cells stained more intensely for bFGF expression following treatment with 10 and 100 ng/ml of relaxin for 24 hours.

human cardiac cells = assay: VEGF protein secreted by human cardiac cells; assay type: cell-based; details: 100 ng/ml, 24 hr
Procedure: Consistent with RT-PCR data, relaxin stimulated a small but significant dose-related increase in levels of VEGF protein secreted by human cardiac. Cells were seeded in 35 mm wells at 2.5×10^5 cells per well 24 hours prior to treatment with relaxin. Cells were washed twice with SmBM (no supplements) and incubated for 2 hr with SmBM treatment medium (containing 400 pg/ml bFGF, gentamycin, amphoteracin B, and 2% fetal calf serum) at 37° C., 5% CO2. The medium was then replaced with SmBM treatment medium without relaxin or with concentrations of relaxin from 0.1 ng/ml to 100 ng/ml. Cells were then incubated for 24 hr (37° C., 5% CO2).

[3] = wound chamber cells, both shoulder and hip region, day 18
[4] = wound chambers in the hip region

rhRLX: recombinant human relaxin, identical in amino acid sequence to the product of the human H2 gene; A chain of 24, B chain of 29 amino acids
expression of VEGF 164 mRNA ([1]; anteriorly placed (shoulder) wound chamber, real-time RT-PCR): upregulated | bFGF transcripts in wound cells ([1]; both shoulder and hip chambers): significant upregulation | VEGF 120 mRNA ([1]; both sites, real-time RT-PCR): trends toward increases | expression of VEGF 164 mRNA ([1]; chamber placed on the hip, real-time RT-PCR): trend toward an increase | bFGF, and VEGF expression in wounds cells ([1]; hip region (Example 7)): increase | new blood vessel formation ([1]; hip region (Example 7)): increase | Expression of both VEGF isoforms, RT-PCR on agarose gel ([1]; wound cells, 18 days): appeared to be enhanced | VEGF mRNA increase compared to vehicle-treated rats [1, 3]: 31% | bFGF mRNA increase compared to vehicle-treated rats [1, 3]: 59% | weight of granulation tissue ([1]; wound chambers at the hip region, day 18 (Example 7)): significant increase | amount of extracellular matrix deposition [1, 4]: increased | amount of granulation tissue [1, 4]: 255 mg | number of capillaries [1, 4]: increased | tissue weight ([1]; wound chambers in the shoulder region): 283 mg | myogenic reactivity ex vivo (small renal arteries): reduced myogenic reactivity | cells stained more intensely for bFGF expression [2]: ~100% | VEGF secretion, maximum induction over control levels (human cardiac cells): 155%
